The Dmax is the greatest extent of degradation seen. Broadly, the DC50 is the concentration at which degradation of the target reaches its halfway point.

In the assay the target is T1, AsPC-1 HiBiT-KRASG12D (Homo sapiens, UniProt P01116, G12D).
T1 construct: insert the HiBiT tag onto the N-terminus of one or more of the endogenous KRAS alleles; endogenous in cells; host or cells: AsPC-1 (ATCC CRL-1682), CRISPR-Cas9 knock-in clone, one tagged allele
As to the kind of experiment: HiBiT degradation assay (G12D), AsPC-1 HiBiT-KRASG12D cells. It counts as cell-based. The settings on record: 24 hours treatment; for Dmax: ASPC1, AsPC-1 HiBiT-KRASG12D cells, maximum degradation observed; for DC50: AsPC-1 HiBiT-KRASG12D cells, HiBiT luminescence. From the text:
Reagents. […] SW1573 cells are homozygous for the G12C mutation in KRAS, AsPC-1 cells are homozygous for the G12D mutation, and SW620 cells are homozygous for the G12V mutation. […] For degradation assays, 384 well plates were used. Alamar blue was purchased from ThermoFisher scientific (A50101) and used according to manufacturer instructions. The Nano-Glo® HiBiT Lytic Detection System and Nano-Glo® HiBiT Blotting System were purchased from Promega (#N3050 and #N2410) and used according to manufacturer instructions.
To create the AsPC-1 HiBiT-KRASG12D cell line, CRISPR-Cas9 was used to insert the HiBiT tag onto the N-terminus of one or more of the endogenous KRAS alleles. […] After knock-in of the tag, individual clones were isolated by single cell dilution and screened for HiBiT insertion by PCR. […] This clone was used in further studies.
HiBiT degradation assays (G12C and G12D). […] All assays were performed in triplicate. Cells were treated with compounds for 24 hours at 37° C. in an incubator containing 5% CO2. Following treatment, alamar blue was used to determine if any compounds led to a loss in cell viability after 24 hours. The 10× alamar blue reagent was added to a final concentration of 1× as recommended by the manufacturer and cells were returned to the incubator for 4 hours. Plates were then allowed to equilibrate to room temperature and fluorescence was measured using a Perkin-Elmer EnVision. After completion of the fluorescence read, the liquid from each well was removed and the cells were washed with PBS. The Nano-Glo® HiBiT detection reagent was prepared according to the manufacturer's instructions and added to each well after the PBS wash was removed. Following incubation at room temperature for 45 minutes, the luminescence was read using the ultra-sensitive luminescence aperture on the Envision instrument.
Data analysis. Fluorescence values from the alamar blue treatment were normalized to the DMSO-only control for each compound titration.
Background: With HiBiT, luminescence reflects the tagged protein that the partner subunit can reach.

T1 sequence (P01116 1-188 isoform P01116-2 G12D): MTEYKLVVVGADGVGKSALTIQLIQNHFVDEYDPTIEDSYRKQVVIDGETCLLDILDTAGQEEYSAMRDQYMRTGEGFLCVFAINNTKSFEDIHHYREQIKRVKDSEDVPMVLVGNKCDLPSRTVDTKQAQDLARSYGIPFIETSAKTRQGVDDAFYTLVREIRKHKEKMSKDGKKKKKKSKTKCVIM

As to `CCc1cccc2cc(O)cc(-c3ncc4c(N5CCCCCC5)nc(OC[C@@]56CCCN5[C@H](COC(=O)N5CCN(c7cc([C@H](C(=O)N8C[C@H](O)C[C@H]8C(=O)N[C@@H](C)c8ccc(-c9scnc9C)cc8)C(C)C)on7)[C@H](C)C5)CC6)nc4c3F)c12` [Compound 229, [(3S,8S)-8-[[4-(azepan-1-yl)-7-(8-ethyl-3-hydroxy-1-naphthyl)-8-fluoro-pyrido[4,3-d]pyrimidin-2-yl]oxymethyl]-1,2,3,5,6,7-hexahydropyrrolizin-3-yl]methyl (3R)-4-[5-[(1R)-1-[(2S,4R)-4-hydroxy-2-[[(1S)-1-[4-(4-methylthiazol-5-yl)phenyl]ethyl]carbamoyl]pyrrolidine-1-carbonyl]-2-methyl-propyl]isoxazol-3-yl]-3-methyl-piperazine-1-carboxylate], the greatest degradation seen (Dmax) lay within 80 to 100% and the DC50 is less than 600 nM.

Regarding `CCc1cccc2cc(O)cc(-c3ncc4c(N5CCCCCC5)nc(OC[C@@]56CCCN5[C@H](COc5cc([C@H](C(=O)N7C[C@H](O)C[C@H]7C(=O)N[C@@H](C)c7ccc(-c8scnc8C)cc7)C(C)C)on5)CC6)nc4c3F)c12` (single isomer, unassigned) [Compound 338], the Dmax was 80 to 100% and the DC50 is less than 600 nM.

Turning to `CCc1cccc2cc(O)cc(-c3ncc4c(N5CCCCCC5)nc(OC[C@@H]5CC[C@@H](COC(=O)N6CCN(c7cc([C@H](C(=O)N8C[C@H](O)C[C@H]8C(=O)N[C@@H](C)c8ccc(-c9scnc9C)cc8)C(C)C)on7)[C@H](C)C6)N5C)nc4c3F)c12` [Compound 230, [(2S,5S)-5-[[4-(azepan-1-yl)-7-(8-ethyl-3-hydroxy-1-naphthyl)-8-fluoro-pyrido[4,3-d]pyrimidin-2-yl]oxymethyl]-1-methyl-pyrrolidin-2-yl]methyl (3R)-4-[5-[(1R)-1-[(2S,4R)-4-hydroxy-2-[[(1S)-1-[4-(4-methylthiazol-5-yl)phenyl]ethyl]carbamoyl]pyrrolidine-1-carbonyl]-2-methyl-propyl]isoxazol-3-yl]-3-methyl-piperazine-1-carboxylate], the Dmax lay within 60 to 80% and the DC50 is less than 600 nM.

For `CCc1cccc2cc(O)cc(-c3ncc4c(N5CC6CCC(C5)N6)nc(OC[C@]56CCCN5[C@H](COC(=O)N5CCN(c7cc([C@H](C(=O)N8C[C@H](O)C[C@H]8C(=O)N[C@@H](C)c8ccc(C#N)cc8)C(C)C)on7)CC5)CC6)nc4c3F)c12` [Compound 66, [(3S,7aR)-7a-{[(4-{3,8-diazabicyclo[3.2.1]octan-3-yl}-7-(8-ethyl-3-hydroxynaphthalen-1-yl)-8-fluoropyrido[4,3-d]pyrimidin-2-yl)oxy]methyl}-hexahydro-1H-pyrrolizin-3-yl]methyl 4-{5-[(2R)-1-[(2S,4R)-2-{[(1S)-1-(4-cyanophenyl)ethyl]carbamoyl}-4-hydroxypyrrolidin-1-yl]-3-methyl-1-oxobutan-2-yl]-1,2-oxazol-3-yl}piperazine-1-carboxylate], the Dmax lay within 60 to 80% and the half-maximal degradation concentration (DC50) was less than 600 nM.

On to `CCc1cccc2cc(O)cc(-c3ncc4c(N5CC6CCC(C5)N6)nc(OC[C@]56CCCN5[C@@H](COC(=O)N(C)Cc5cc([C@@H](C(=O)N7C[C@H](O)C[C@H]7C(=O)N[C@@H](C)c7ccc(-c8scnc8C)cc7)C(C)C)on5)CC6)nc4c3F)c12` [Compound 93, [(3R,7aR)-7a-{[(4-{3,8-diazabicyclo[3.2.1]octan-3-yl}-7-(8-ethyl-3-hydroxynaphthalen-1-yl)-8-fluoropyrido[4,3-d]pyrimidin-2-yl)oxy]methyl}-hexahydro-1H-pyrrolizin-3-yl]methyl N-({5-[(2S)-1-[(2S,4R)-4-hydroxy-2-{[(1S)-1-[4-(4-methyl-1,3-thiazol-5-yl)phenyl]ethyl]carbamoyl}pyrrolidin-1-yl]-3-methyl-1-oxobutan-2-yl]-1,2-oxazol-3-yl}methyl)-N-methylcarbamate], for which the Dmax lay in the range of 20 to 60% and the DC50 was in the range of 1000 to 3000 nM.

Molecule `CCc1cccc2cc(O)cc(-c3ncc4c(N5CC6CCC(C5)N6)nc(OCCN5CCN(c6cc([C@@H](C(=O)N7C[C@H](O)C[C@H]7C(=O)N[C@@H](C)c7ccc(-c8scnc8C)cc7)C(C)C)on6)CC5)nc4c3F)c12` (relative stereo) [Compound 136, (2S,4R)-1-[(2R*)-2-[3-(4-{2-[(4-{3,8-diazabicyclo[3.2.1]octan-3-yl}-7-(8-ethyl-3-hydroxynaphthalen-1-yl)-8-fluoropyrido[4,3-d]pyrimidin-2-yl)oxy]ethyl}piperazin-1-yl)-1,2-oxazol-5-yl]-3-methylbutanoyl]-4-hydroxy-N-[(1S)-1-[4-(4-methyl-1,3-thiazol-5-yl)phenyl]ethyl]pyrrolidine-2-carboxamide] returned a DC50 of more than 3000 nM.

Molecule `CCc1cccc2cc(O)cc(-c3ncc4c(N5CC6CCC(C5)N6)nc(OC[C@@]56CCCN5[C@H](COc5cc([C@H](C(=O)N7C[C@H](O)C[C@H]7C(=O)N[C@@H](C)c7ccc(-c8scnc8C)cc7)C(C)C)on5)CC6)nc4c3F)c12` [Compound 29, (2S,4R)-1-[(2R)-2-(3-{[(3S,7aS)-7a-{[(4-{3,8-diazabicyclo[3.2.1]octan-3-yl}-7-(8-ethyl-3-hydroxynaphthalen-1-yl)-8-fluoropyrido[4,3-d]pyrimidin-2-yl)oxy]methyl}-hexahydro-1H-pyrrolizin-3-yl]methoxy}-1,2-oxazol-5-yl)-3-methylbutanoyl]-4-hydroxy-N-[(1S)-1-[4-(4-methyl-1,3-thiazol-5-yl)phenyl]ethyl]pyrrolidine-2-carboxamide] yielded a Dmax of 80 to 100% and a half-maximal degradation concentration (DC50) of less than 600 nM.

As for `CCc1cccc2cc(O)cc(-c3ncc4c(N5CC6CCC(C5)N6)nc(OC[C@@]56CCCN5[C@H](COC(=O)N5CC(COc7cc([C@@H](C(=O)N8C[C@H](O)C[C@H]8C(=O)N[C@@H](C)c8ccc(-c9scnc9C)cc8)C(C)C)on7)C5)CC6)nc4c3F)c12` [Compound 115, [(3S,7aS)-7a-{[(4-{3,8-diazabicyclo[3.2.1]octan-3-yl}-7-(8-ethyl-3-hydroxynaphthalen-1-yl)-8-fluoropyrido[4,3-d]pyrimidin-2-yl)oxy]methyl}-hexahydro-1H-pyrrolizin-3-yl]methyl 3-[({5-[(2S)-1-[(2S,4R)-4-hydroxy-2-{[(1S)-1-[4-(4-methyl-1,3-thiazol-5-yl)phenyl]ethyl]carbamoyl}pyrrolidin-1-yl]-3-methyl-1-oxobutan-2-yl]-1,2-oxazol-3-yl}oxy)methyl]azetidine-1-carboxylate], the Dmax is 20 to 60% and the DC50 was 600 to 1000 nM.

Molecule `CCc1cccc2cc(O)cc(-c3ncc4c(N5CC6CCC(C5)N6)nc(OC[C@H]5CC[C@@]6(COC(=O)N7CCN(c8cc([C@H](C(=O)N9C[C@H](O)C[C@H]9C(=O)N[C@@H](C)c9ccc(-c%10scnc%10C)cc9)C(C)C)on8)CC7)CCCN56)nc4c3F)c12` [Compound 343, [(3R,8R)-3-[[4-(3,8-diazabicyclo[3.2.1]octan-3-yl)-7-(8-ethyl-3-hydroxy-1-naphthyl)-8-fluoro-pyrido[4,3-d]pyrimidin-2-yl]oxymethyl]-1,2,3,5,6,7-hexahydropyrrolizin-8-yl]methyl 4-[5-[(1R)-1-[(2S,4R)-4-hydroxy-2-[[(1S)-1-[4-(4-methylthiazol-5-yl)phenyl]ethyl]carbamoyl]pyrrolidine-1-carbonyl]-2-methyl-propyl]isoxazol-3-yl]piperazine-1-carboxylate] came in with a Dmax of 80 to 100% and a 50% degradation concentration (DC50) of less than 600 nM.

Molecule `CCc1cccc2cc(O)cc(-c3ncc4c(N5CC6CCC(C5)N6)nc(OCCN5CCC(C6CN(c7cc([C@@H](C(=O)N8C[C@H](O)C[C@H]8C(=O)N[C@@H](C)c8ccc(-c9scnc9C)cc8)C(C)C)on7)C6)CC5)nc4c3F)c12` (single isomer, unassigned) [Compound 277] showed a Dmax of 20 to 60% and a half-maximal degradation concentration (DC50) of 1000 to 3000 nM.

As for `CCc1cccc2cc(O)cc(-c3ncc4c(N5CC6CCC(C5)N6)nc(OC[C@@H]5CC[C@@H](COC(=O)N6CC7(C6)CN(c6cc([C@H](C(=O)N8C[C@H](O)C[C@H]8C(=O)N[C@@H](C)c8ccc(-c9scnc9C)cc8)C(C)C)on6)C7)N5C)nc4c3F)c12` [Compound 213, [(2S,5S)-5-{[(4-{3,8-diazabicyclo[3.2.1]octan-3-yl}-7-(8-ethyl-3-hydroxynaphthalen-1-yl)-8-fluoropyrido[4,3-d]pyrimidin-2-yl)oxy]methyl}-1-methylpyrrolidin-2-yl]methyl 6-{5-[(2R)-1-[(2S,4R)-4-hydroxy-2-{[(1S)-1-[4-(4-methyl-1,3-thiazol-5-yl)phenyl]ethyl]carbamoyl}pyrrolidin-1-yl]-3-methyl-1-oxobutan-2-yl]-1,2-oxazol-3-yl}-2,6-diazaspiro[3.3]heptane-2-carboxylate], the Dmax lay in the range of 80 to 100% and the 50% degradation concentration (DC50) was less than 600 nM.

These data come from US20250206732A1, “COMPOUNDS AND METHODS FOR THE TARGETED DEGRADATION OF KRAS” (Arvinas Operations, Inc., priority 2022, published 2025).
